In one experiment the target is Recombinant human DDR1 (Homo sapiens (Human), UniProt Q08345). As to the kind of experiment: LanthaScreen Eu Kinase Binding Assay, DDR1. The following applies: DDR1 2.5 nM (aa440-876, GST tag), Kinase Tracer 178 5 nM; for IC50: read-out: DDR1 pIC50 (converted). On the procedure:
(§1) DDR1 and DDR2 Biochemical Assay Method
(§2) The capacity of compounds to bind to DDR1 and DDR2 was quantified using a LanthaScreen Eu Kinase Binding Assay. Recombinant human DDR1 (2.5 nM; aa440-876 containing a GST tag) and DDR2 (1.75 nM; aa427-855 containing a GST tag) were diluted in assay buffer (50 mM HEPES pH7.3, 10 mM MgCl2, 1 mM EGTA and 0.01% Tween) with various concentrations of compound in a 384-well plate and a volume of 5 uL. After a 30-minute incubation at room temperature, 2.5 uL of Eu-anti GST antibody (diluted to 1 nM in assay buffer) plus Kinase Tracer 178 (diluted in assay buffer to 5 nM for DDR1 and 10 nM for DDR2) were added to the plate. Following 60-minute incubation at room temperature, time-resolved fluorescence was measured on a BMG Labtech PHERAstar plate reader. DMSO (1%) and reference compound (1 μM) were used to generate the Max and Min assay signals, respectively. Data was analysed using a four-parameter logistic model to calculate IC50 values, with at least two independent replicates were performed for each compound.
On the technique in general: In TR-FRET formats the signal depends on donor and acceptor labels being close together.

For a further experiment, the target named is Recombinant human DDR2 (Homo sapiens (Human), UniProt Q16832). As to the kind of experiment: LanthaScreen Eu Kinase Binding Assay, DDR2. The following applies: DDR2 1.75 nM (aa427-855, GST tag), Kinase Tracer 178 10 nM; for IC50: read-out: DDR2 pIC50 (converted). Here is the method:
as §1, §2

Some results are limits rather than exact numbers.

Chain of Recombinant human DDR2 (Q16832 427-855): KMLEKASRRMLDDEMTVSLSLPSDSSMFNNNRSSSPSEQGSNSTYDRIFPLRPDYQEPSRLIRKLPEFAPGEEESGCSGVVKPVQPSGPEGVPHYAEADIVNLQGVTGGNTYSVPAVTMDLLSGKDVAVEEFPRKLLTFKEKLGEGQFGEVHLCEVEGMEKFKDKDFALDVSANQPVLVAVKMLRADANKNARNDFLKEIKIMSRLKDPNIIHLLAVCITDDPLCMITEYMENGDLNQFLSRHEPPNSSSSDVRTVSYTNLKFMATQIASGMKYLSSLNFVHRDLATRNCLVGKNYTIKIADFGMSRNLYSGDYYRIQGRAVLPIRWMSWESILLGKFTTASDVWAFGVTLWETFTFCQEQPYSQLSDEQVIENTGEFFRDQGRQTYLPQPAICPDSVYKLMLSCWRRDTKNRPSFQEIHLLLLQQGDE
Chain of Recombinant human DDR1 (Q08345 other isoform, or with tags, fused parts or gaps): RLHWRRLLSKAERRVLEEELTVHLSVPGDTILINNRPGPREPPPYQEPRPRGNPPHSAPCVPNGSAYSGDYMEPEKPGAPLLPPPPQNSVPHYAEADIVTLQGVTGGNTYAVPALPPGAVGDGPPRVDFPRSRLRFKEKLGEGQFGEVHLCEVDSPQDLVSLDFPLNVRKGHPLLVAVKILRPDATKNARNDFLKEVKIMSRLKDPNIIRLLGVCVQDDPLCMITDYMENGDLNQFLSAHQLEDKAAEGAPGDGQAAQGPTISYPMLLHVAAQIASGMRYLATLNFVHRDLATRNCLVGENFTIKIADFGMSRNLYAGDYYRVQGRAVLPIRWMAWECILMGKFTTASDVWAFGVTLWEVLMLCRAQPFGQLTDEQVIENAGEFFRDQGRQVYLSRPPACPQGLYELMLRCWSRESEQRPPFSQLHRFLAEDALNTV

Turning to `Cc1n[nH]c2cc(Nc3cccc4c3C(=O)N(CC(=O)N3CCC[C@H]3C(F)(F)F)C4)ccc12` [Example 29, 7-[(3-methyl-1H-indazol-6-yl)amino]-2-[2-oxo-2-[(2S)-(trifluoromethyl)77yrrolidine-1-yl]ethyl]isoindolin-1-one], the IC50 on Recombinant human DDR1 and at Recombinant human DDR2 was less than 10 nM in each case.

For the molecule `Cc1n[nH]c2cc(Nc3cccc4c3C(=O)N(CC(=O)NCC(F)(F)F)C4)cnc12` [Example 30, 2-[7-[(3-methyl-1H-pyrazolo[4,3-b]pyridin-6-yl)amino]-1-oxo-isoindolin-2-yl]-N-(2,2,2-trifluoroethyl)acetamide], at Recombinant human DDR1, the “DDR1 pIC50” value was “A (pIC50>8)”. In addition, the IC50 at Recombinant human DDR2 is 10 to 100 nM.

`Cn1ncc2cc(Nc3cccc4c3C(=O)N(CC(=O)N3CCOCC3C(F)(F)F)C4)ccc21` (centres unmarked) [Example 31, 7-[(1-methylindazol-5-yl)amino]-2-[2-oxo-2-[3-(trifluoromethyl)morpholin-4-yl]ethyl]isoindolin-1-one]: the “DDR1 pIC50” value at Recombinant human DDR1 is given as “A (pIC50>8)”. For the same molecule, the IC50 on Recombinant human DDR2 was 10 to 100 nM.

Consider `Cc1n[nH]c2cc(Nc3cccc4c3C(=O)N(CC(=O)N3CCCC(C(F)(F)F)C3)C4)ccc12` (centres unmarked) [Example 32, 7-[(3-methyl-1H-indazol-6-yl)amino]-2-[2-oxo-2-[3-(trifluoromethyl)-1-piperidyl]ethyl]isoindolin-1-one], for which the “DDR1 pIC50” value on Recombinant human DDR1 is given as “A (pIC50>8)”. Moreover, at Recombinant human DDR2, the “DDR2 pIC50” value is “A (pIC50>8)”.

Consider `Cc1n[nH]c2cc(Nc3cccc4c3C(=O)N(CC(=O)N3CCC[C@H]3CF)C4)ccc12` [Example 33, 2-[2-[(2S)-(fluoromethyl)pyrrolidin-1-yl]-2-oxo-ethyl]-7-[(3-methyl-1H-indazol-6-yl)amino]isoindolin-1-one], for which the “DDR1 pIC50” value on Recombinant human DDR1 is reported as “A (pIC50>8)”. Further, on Recombinant human DDR2, the “DDR2 pIC50” value is “A (pIC50>8)”.

Consider `Cc1n[nH]c2cc(Nc3cccc4c3C(=O)N(CC(=O)N3CC(C(F)(F)F)C3)C4)ccc12` [Example 34, 7-[(3-methyl-1H-indazol-6-yl)amino]-2-[2-oxo-2-[3-(trifluoromethyl)azetidin-1-yl]ethyl]isoindolin-1-one], for which the IC50 on Recombinant human DDR1 and at Recombinant human DDR2 was 10 to 100 nM in each case.

Regarding `Cc1n[nH]c2cc(Nc3cccc4c3C(=O)N(CC(=O)NC3CC3(F)F)C4)ccc12` (centres unmarked) [Example 36, N-(2,2-difluorocyclopropyl)-2-[7-[(3-methyl-1H-indazol-6-yl)amino]-1-oxo-isoindolin-2-yl]acetamide], on Recombinant human DDR1, the “DDR1 pIC50” value was “A (pIC50>8)”. The “DDR2 pIC50” value at Recombinant human DDR2 is “A (pIC50>8)”.

As for `Cc1n[nH]c2cc(Nc3cccc4c3C(=O)N(CC(=O)Nc3ccc(CN(C)C)c(C(F)(F)F)c3)C4)ccc12` [Example 37, N-[4-[(dimethylamino)methyl]-3-(trifluoromethyl)phenyl]-2-[7-[(3-methyl-1H-indazol-6-yl)amino]-1-oxo-isoindolin-2-yl]acetamide], the “DDR1 pIC50” value on Recombinant human DDR1 is given as “A (pIC50>8)”. Besides, the IC50 at Recombinant human DDR2 was 10 to 100 nM.

Regarding `Cc1n[nH]c2cc(Nc3cccc4c3C(=O)N(CC(=O)N3CCOC(C(F)(F)F)C3)C4)ccc12` (centres unmarked) [Example 38, 7-[(3-methyl-1H-indazol-6-yl)amino]-2-[2-oxo-2-[2-(trifluoromethyl)morpholin-4-yl]ethyl]isoindolin-1-one], the “DDR1 pIC50” value at Recombinant human DDR1 is given as “A (pIC50>8)”. The IC50 at Recombinant human DDR2 was 10 to 100 nM.

For `Cc1n[nH]c2cc(Nc3cccc4c3C(=O)N(CC(=O)Nc3cc(CN(C)C)cc(C(F)(F)F)c3)C4)ccc12` [Example 39, N-[3-[(dimethylamino)methyl]-5-(trifluoromethyl)phenyl]-2-[7-[(3-methyl-1H-indazol-6-yl)amino]-1-oxo-isoindolin-2-yl]acetamide], the “DDR1 pIC50” value at Recombinant human DDR1 was “A (pIC50>8)”. For the same molecule, the IC50 on Recombinant human DDR2 is 10 to 100 nM.

Take `Cc1n[nH]c2cc(Nc3cccc4c3C(=O)N(CC(=O)Nc3cnoc3)C4)ccc12` [Example 40, N-isoxazol-4-yl-2-[7-[(3-methyl-1H-indazol-6-yl)amino]-1-oxo-isoindolin-2-yl]acetamide]: at Recombinant human DDR1, the “DDR1 pIC50” value is listed as “A (pIC50>8)”. For the same molecule, the “DDR2 pIC50” value on Recombinant human DDR2 is on record as “A (pIC50>8)”.

On to `Cc1n[nH]c2cc(Nc3cccc4c3C(=O)N(CC(=O)N3CCC[C@H]3C(F)F)C4)ccc12` [Example 41, 7-[(3-methyl-1H-indazol-6-yl)amino]-2-[2-oxo-2-[(2S)-(difluoromethyl)pyrrolidin-1-yl]ethyl]isoindolin-1-one], for which the “DDR1 pIC50” value on Recombinant human DDR1 is recorded as “A (pIC50>8)”. For the same molecule, the “DDR2 pIC50” value on Recombinant human DDR2 is “A (pIC50>8)”.

Take `Cc1n[nH]c2cc(Nc3cccc4c3C(=O)N(CC(=O)N3CCCC[C@H]3C(F)(F)F)C4)ccc12` [Example 42, 7-[(3-methyl-1H-indazol-6-yl)amino]-2-[2-oxo-2-[(2S)-(trifluoromethyl)-1-piperidyl]ethyl]isoindolin-1-one]: the IC50 at Recombinant human DDR1 and on Recombinant human DDR2 was less than 10 nM throughout.

In the case of `CN(CC(F)(F)F)C(=O)CN1Cc2cccc(Nc3ccc4c(cnn4C)c3)c2C1=O` [Example 43, N-methyl-2-[7-[(1-methylindazol-5-yl)amino]-1-oxo-isoindolin-2-yl]-N-(2,2,2-trifluoroethyl)acetamide], on Recombinant human DDR1, the “DDR1 pIC50” value is “A (pIC50>8)”. Also, the IC50 on Recombinant human DDR2 was 10 to 100 nM.

As for `Cn1ncc2cc(Nc3cccc4c3C(=O)N(CC(=O)N3CCOC[C@H]3C(F)(F)F)C4)ccc21` [Example 44, 7-[(1-methylindazol-5-yl)amino]-2-[2-oxo-2-[(3S)-(trifluoromethyl)morpholin-4-yl]ethyl]isoindolin-1-one], the IC50 is 10 to 100 nM on Recombinant human DDR1 and 100 to 1000 nM on Recombinant human DDR2.

Consider `Cn1ncc2cc(Nc3cccc4c3C(=O)N(CC(=O)N3CCOC[C@@H]3C(F)(F)F)C4)ccc21` [Example 45, 7-[(1-methylindazol-5-yl)amino]-2-[2-oxo-2-[(3R)-(trifluoromethyl)morpholin-4-yl]ethyl]isoindolin-1-one], for which the results for the IC50 at Recombinant human DDR1 and on Recombinant human DDR2 were less than 10 nM and 10 to 100 nM, respectively.

For the molecule `Cc1n[nH]c2cc(Nc3cccc4c3C(=O)N(CC(=O)N(C)CC(F)(F)F)C4)ccc12` [Example 46, N-methyl-2-[7-[(3-methyl-1H-indazol-6-yl)amino]-1-oxo-isoindolin-2-yl]-N-(2,2,2-trifluoroethyl)acetamide], the “DDR1 pIC50” value at Recombinant human DDR1 is “A (pIC50>8)”. Further, the “DDR2 pIC50” value at Recombinant human DDR2 is given as “A (pIC50>8)”.

As to `Cc1n[nH]c2cc(Nc3cccc4c3C(=O)N(CC(=O)N3CCO[C@@H](C(F)(F)F)C3)C4)ccc12` [Example 47, 7-[(3-methyl-1H-indazol-6-yl)amino]-2-[2-oxo-2-[(2R)-(trifluoromethyl)morpholin-4-yl]ethyl]isoindolin-1-one], the “DDR1 pIC50” value at Recombinant human DDR1 is reported as “A (pIC50>8)”. The IC50 on Recombinant human DDR2 was 10 to 100 nM.

On to `Cc1n[nH]c2cc(Nc3cccc4c3C(=O)N(CC(=O)N3CCO[C@H](C(F)(F)F)C3)C4)ccc12` [Example 48, 7-[(3-methyl-1H-indazol-6-yl)amino]-2-[2-oxo-2-[(2S)-(trifluoromethyl)morpholin-4-yl]ethyl]isoindolin-1-one], for which the “DDR1 pIC50” value on Recombinant human DDR1 was “A (pIC50>8)”. Moreover, the IC50 on Recombinant human DDR2 was 10 to 100 nM.

For `Cn1ncc2cc(Nc3cccc4c3C(=O)N(CC(=O)NC(C)(C)C(F)(F)F)C4)ccc21` [Example 49, 2-[7-[(1-methylindazol-5-yl)amino]-1-oxo-isoindolin-2-yl]-N-(2,2,2-trifluoro-1,1-dimethyl-ethyl)acetamide], at Recombinant human DDR1, the “DDR1 pIC50” value is “A (pIC50>8)”. Moreover, the “DDR2 pIC50” value on Recombinant human DDR2 is listed as “A (pIC50>8)”.

In the case of `Cn1ncc2cc(Nc3cccc4c3C(=O)N(CC(=O)N3CCC3C(F)(F)F)C4)ccc21` (centres unmarked) [Example 50, 7-[(1-methylindazol-5-yl)amino]-2-[2-oxo-2-[2-(trifluoromethyl)azetidin-1-yl]ethyl]isoindolin-1-one], the “DDR1 pIC50” value on Recombinant human DDR1 is “A (pIC50>8)”. For the same molecule, the “DDR2 pIC50” value on Recombinant human DDR2 is “A (pIC50>8)”.

With `Cn1ncc2cc(Nc3cccc4c3C(=O)N(CC(=O)N3CCC[C@H]3C(F)(F)F)C4)cnc21` [Example 51, 7-[(1-methylpyrazolo[3,4-b]pyridin-5-yl)amino]-2-[2-oxo-2-[(2S)-2-(trifluoromethyl)pyrrolidin-1-yl]ethyl]isoindolin-1-one], the “DDR1 pIC50” value at Recombinant human DDR1 is given as “A (pIC50>8)”. Moreover, the “DDR2 pIC50” value on Recombinant human DDR2 is reported as “A (pIC50>8)”.

In the case of `Cn1ncc2cc(Nc3cccc4c3C(=O)N(CC(=O)NC3CC3(F)F)C4)cnc21` (centres unmarked) [Example 52, N-(2,2-difluorocyclopropyl)-2-[7-[(1-methylpyrazolo[3,4-b]pyridin-5-yl)amino]-1-oxo-isoindolin-2-yl]acetamide], the figures for the IC50 at Recombinant human DDR1 and at Recombinant human DDR2 were 10 to 100 nM and 100 to 1000 nM, respectively.

As to `C[C@H](NC(=O)CN1Cc2cccc(Nc3cnc4c(cnn4C)c3)c2C1=O)C(F)(F)F` [Example 53, 2-[7-[(1-methylpyrazolo[3,4-b]pyridin-5-yl)amino]-1-oxo-isoindolin-2-yl]-N-[(1S)-2,2,2-trifluoro-1-methyl-ethyl]acetamide], the “DDR1 pIC50” value at Recombinant human DDR1 was “A (pIC50>8)”. Besides, the IC50 at Recombinant human DDR2 is 10 to 100 nM.

As to `Cn1ncc2cc(Nc3cccc4c3C(=O)N(CC(=O)N3CCO[C@H](C(F)(F)F)C3)C4)cnc21` [Example 54, 7-[(1-methylpyrazolo[3,4-b]pyridin-5-yl)amino]-2-[2-oxo-2-[(2S)-(trifluoromethyl)morpholin-4-yl]ethyl]isoindolin-1-one], the IC50 on Recombinant human DDR1 and at Recombinant human DDR2 was 100 to 1000 nM each time.

These data come from patent US20260069571A1, “DDR1 AND DDR2 INHIBITORS FOR THE TREATEMENT OF CANCER AND FIBROTIC DISEASES” (REDX PHARMA PLC, priority 2021, published 2026).
